Experimental data published in US9902713B2, “Neuroprotective compounds and use thereof” (BOARD OF REGENTS OF THE UNIVERSITY OF TEXAS SYSTEM, priority 2013, dated 2018).

What was measured:
[1] = test system: cultured cortical neurons; test: MPP+ toxicity in cultured neurons (MTT); format: cell-based; settings: 10 μM compound, 10 μM MPP+, 24 hrs
Procedure: FIGS. 35A-35B show P7C3-S243 and P7C3-A20 protect cultured hippocampal and cortical neurons from MPP^+ toxicity. […] Experiments were performed 2 independent times with 8-12 replicates of each sample both times.

[2] = Pharmacokinetic analysis, plasma and brain levels
newborn neurons = test: Survival of BrdU-prelabeled newborn neurons (FIG. 4); format: in vivo, mice; settings: BrdU bolus, then twice-daily IP 7 days
Procedure: (§1) Adult mice were administered a bolus of BrdU (150 mg/kg) to label newborn neurons, and 24 hours later, twice-daily IP treatment was begun with vehicle or compound for 7 days. At the end of the 7 days, the number of surviving BrdU-labeled neurons was quantified. Importantly, under the conditions of this experiment, newborn neurons were labeled prior to exposure to drug, so any increase in number of neurons can be attributed to neuroprotective activity rather than proliferative effects. […] Data shown are mean+/−SEM. P values are shown for comparison to VEH treated group, and were obtained by one-way ANOVA with Dunnet's post-hoc test, using GraphPad Prism 5.0. Asterisks indicate p<0.01 (*) or p<0.0001 (***).
as §1, with “Specifically, in FIG. 4, adult” for “Adult”, “Asterisks indicate p<0.01 (*) or p<0.0001 (***).” left out

[3] = Metabolic stability in hepatocytes; format: in vitro ADME; settings: murine hepatocytes
Procedure: The pharmacokinetic and toxicity profiles of P7C3-S243 were evaluated using both in vivo and in vitro methods. Having observed near complete metabolic stability in the presence of murine hepatocytes (T1/2>240 min), we monitored plasma and brain levels of the compound following IV, oral and IP dosing.

in vivo = settings: mouse; for Kp: brain and plasma
2B6 = 2B6 (Homo sapiens, UniProt P20813); test: Cytochrome P450 inhibition; format: in vitro ADME
[4] = test system: 47 neuronal receptors and channels; test: NIH Psychoactive Drug Screening Program panel; format: binding
blast-injured mice [5] = test: Barnes maze, treatment begun 10 months after blast injury; format: in vivo
Description: After 8 weeks of treatment, mice were completely withdrawn from treatment with vehicle or compound.

hERG = hERG (Homo sapiens, UniProt Q12809); test: hERG patch clamp assay
μ-opioid receptor = μ-opioid receptor (Homo sapiens, UniProt P35372); test: Ligand displacement (Psychoactive Drug Screening Program); format: binding
blast-injured mice [6] = test: Foot slip assay after blast-injury; format: in vivo; settings: 28 days after injury, daily oral 6 mg/kg/day from 24 hours
Description: Because the cerebellum controls coordination, we next assayed their balance and coordination, using standard procedures (Luong et al., 2011). Mice were trained to cross an 80 cm long beam over 2 days, and then sham or blast-injured on day 3. […] Mice were videotaped during the test, and then analyzed for the number of foot slips by observers blind to treatment group. […] Thus, protective efficacy for cerebellar axonal degeneration after injury by (−)-P7C3-S243 correlated with preservation of motor coordination.
Foot slip assay. We used standard procedures described by Luong et al. (2011) to measure motor balance coordination. During the training period, mice were trained to cross the 80 cm beam to enter a black box with nesting material 3 times a day over 2 consecutive days. Mice were then sham-or blast-Injured on the next day. 24 hrs after injury, daily administration with (−)-P7C3-S243 or vehicle was initiated. Animals were then tested 7 and 28 days after injury. Mice performance was videotaped during the test and foot slips were analyzed by an observer blind to condition and treatment group.

HCC44 = test: Toxicity towards human cancer cell line; format: cell-based
2C9 = 2C9 (Homo sapiens, UniProt P11712); test: Cytochrome P450 inhibition; format: in vitro ADME
H2009 = test: Toxicity towards human cancer cell line; format: cell-based; settings: NCI-H2009
[7] = biological target: (Homo sapiens, UniProt P10635); test: Cytochrome P450 inhibition; format: in vitro ADME; settings: 3D6
H2122 = test: Toxicity towards human cancer cell line; format: cell-based; settings: NCI-H2122
3A4 = 3A4 (Homo sapiens, UniProt P08684); test: Cytochrome P450 inhibition; format: in vitro ADME
CYP1A2 = CYP1A2 (Homo sapiens, UniProt P05177); test: Cytochrome P450 inhibition
[8] = test system: cerebral cortical neurons; settings: previously reported; cited from earlier work

hERG, sequence (Q12809 whole entry): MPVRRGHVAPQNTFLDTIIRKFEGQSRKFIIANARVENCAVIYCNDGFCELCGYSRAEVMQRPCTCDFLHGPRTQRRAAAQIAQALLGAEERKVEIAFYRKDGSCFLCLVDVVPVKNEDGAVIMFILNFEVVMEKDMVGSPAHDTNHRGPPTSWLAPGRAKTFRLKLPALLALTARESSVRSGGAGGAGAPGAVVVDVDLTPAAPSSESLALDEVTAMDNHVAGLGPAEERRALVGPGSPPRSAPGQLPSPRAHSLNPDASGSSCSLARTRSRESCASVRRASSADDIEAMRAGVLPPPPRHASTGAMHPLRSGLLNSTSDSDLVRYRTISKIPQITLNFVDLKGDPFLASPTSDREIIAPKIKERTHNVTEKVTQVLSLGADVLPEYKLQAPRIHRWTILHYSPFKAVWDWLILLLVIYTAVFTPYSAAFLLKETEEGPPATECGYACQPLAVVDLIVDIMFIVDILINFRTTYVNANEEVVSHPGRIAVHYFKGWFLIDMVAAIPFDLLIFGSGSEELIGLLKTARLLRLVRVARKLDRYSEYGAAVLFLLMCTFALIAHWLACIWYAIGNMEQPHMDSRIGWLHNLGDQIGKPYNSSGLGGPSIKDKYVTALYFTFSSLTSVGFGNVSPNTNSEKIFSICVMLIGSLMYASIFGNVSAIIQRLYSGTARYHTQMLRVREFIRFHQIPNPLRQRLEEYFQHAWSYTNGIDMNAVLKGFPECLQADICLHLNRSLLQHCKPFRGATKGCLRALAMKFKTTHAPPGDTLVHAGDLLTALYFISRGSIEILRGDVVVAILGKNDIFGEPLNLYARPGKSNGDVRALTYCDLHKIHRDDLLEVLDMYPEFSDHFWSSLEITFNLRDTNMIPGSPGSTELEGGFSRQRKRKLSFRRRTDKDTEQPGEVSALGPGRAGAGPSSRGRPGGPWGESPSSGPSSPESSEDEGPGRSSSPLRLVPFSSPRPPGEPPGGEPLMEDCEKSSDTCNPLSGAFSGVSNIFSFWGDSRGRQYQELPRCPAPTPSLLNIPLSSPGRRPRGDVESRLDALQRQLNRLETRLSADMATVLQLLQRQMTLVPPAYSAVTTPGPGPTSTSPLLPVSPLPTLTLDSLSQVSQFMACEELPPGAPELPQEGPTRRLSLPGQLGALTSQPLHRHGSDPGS
2B6, sequence (P20813 whole entry): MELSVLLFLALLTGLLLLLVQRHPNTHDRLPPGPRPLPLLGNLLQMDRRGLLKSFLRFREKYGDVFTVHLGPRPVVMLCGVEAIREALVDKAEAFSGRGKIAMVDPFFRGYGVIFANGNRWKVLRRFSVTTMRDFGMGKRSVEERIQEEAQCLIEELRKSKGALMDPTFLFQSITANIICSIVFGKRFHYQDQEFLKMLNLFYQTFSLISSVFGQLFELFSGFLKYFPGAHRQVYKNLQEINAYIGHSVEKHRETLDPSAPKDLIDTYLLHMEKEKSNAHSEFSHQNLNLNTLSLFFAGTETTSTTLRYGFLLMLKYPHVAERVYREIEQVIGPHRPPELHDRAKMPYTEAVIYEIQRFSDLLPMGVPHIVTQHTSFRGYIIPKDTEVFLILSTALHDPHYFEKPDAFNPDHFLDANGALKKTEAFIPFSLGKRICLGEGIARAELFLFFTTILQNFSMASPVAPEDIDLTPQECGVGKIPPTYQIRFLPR
2C9, sequence (P11712 whole entry): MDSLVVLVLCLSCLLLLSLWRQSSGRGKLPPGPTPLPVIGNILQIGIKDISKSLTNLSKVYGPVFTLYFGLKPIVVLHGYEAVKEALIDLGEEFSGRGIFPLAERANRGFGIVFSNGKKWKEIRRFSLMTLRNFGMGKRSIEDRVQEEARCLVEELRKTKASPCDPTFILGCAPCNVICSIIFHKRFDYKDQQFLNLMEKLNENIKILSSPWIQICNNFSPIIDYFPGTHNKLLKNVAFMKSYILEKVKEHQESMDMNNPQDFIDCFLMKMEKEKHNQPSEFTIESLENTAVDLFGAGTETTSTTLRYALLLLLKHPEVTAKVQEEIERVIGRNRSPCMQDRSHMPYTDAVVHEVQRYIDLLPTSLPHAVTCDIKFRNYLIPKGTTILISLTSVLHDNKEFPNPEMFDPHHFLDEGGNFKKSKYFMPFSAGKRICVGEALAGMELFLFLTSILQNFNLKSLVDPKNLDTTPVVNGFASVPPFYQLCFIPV
(Homo sapiens, UniProt P10635), sequence (P10635 whole entry): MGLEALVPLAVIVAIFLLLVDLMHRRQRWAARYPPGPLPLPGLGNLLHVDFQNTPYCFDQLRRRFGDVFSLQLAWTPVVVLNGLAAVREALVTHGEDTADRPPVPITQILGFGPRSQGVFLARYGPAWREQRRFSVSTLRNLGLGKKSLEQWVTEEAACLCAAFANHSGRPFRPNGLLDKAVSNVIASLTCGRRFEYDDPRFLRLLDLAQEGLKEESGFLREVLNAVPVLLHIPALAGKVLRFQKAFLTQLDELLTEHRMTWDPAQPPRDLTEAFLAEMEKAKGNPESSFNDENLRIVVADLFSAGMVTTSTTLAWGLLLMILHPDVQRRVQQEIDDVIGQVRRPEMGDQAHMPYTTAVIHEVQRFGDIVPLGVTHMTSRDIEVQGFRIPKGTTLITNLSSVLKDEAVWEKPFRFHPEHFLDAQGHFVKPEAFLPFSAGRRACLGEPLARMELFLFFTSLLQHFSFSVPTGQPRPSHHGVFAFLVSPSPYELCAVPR
3A4, sequence (P08684 whole entry): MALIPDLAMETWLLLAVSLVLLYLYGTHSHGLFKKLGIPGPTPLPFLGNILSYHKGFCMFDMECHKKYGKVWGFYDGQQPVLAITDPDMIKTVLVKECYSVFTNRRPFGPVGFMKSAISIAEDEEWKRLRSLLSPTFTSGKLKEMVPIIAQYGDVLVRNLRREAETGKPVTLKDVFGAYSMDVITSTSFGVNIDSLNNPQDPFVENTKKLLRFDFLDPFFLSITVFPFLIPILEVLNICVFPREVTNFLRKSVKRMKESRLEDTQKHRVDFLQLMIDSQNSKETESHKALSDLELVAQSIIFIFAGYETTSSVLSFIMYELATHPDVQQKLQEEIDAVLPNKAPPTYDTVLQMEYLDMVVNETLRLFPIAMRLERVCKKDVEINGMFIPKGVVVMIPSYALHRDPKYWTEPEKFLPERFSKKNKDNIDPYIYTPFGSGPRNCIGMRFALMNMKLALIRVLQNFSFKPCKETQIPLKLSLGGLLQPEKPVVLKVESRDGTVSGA
μ-opioid receptor, sequence (P35372 whole entry, species assumed): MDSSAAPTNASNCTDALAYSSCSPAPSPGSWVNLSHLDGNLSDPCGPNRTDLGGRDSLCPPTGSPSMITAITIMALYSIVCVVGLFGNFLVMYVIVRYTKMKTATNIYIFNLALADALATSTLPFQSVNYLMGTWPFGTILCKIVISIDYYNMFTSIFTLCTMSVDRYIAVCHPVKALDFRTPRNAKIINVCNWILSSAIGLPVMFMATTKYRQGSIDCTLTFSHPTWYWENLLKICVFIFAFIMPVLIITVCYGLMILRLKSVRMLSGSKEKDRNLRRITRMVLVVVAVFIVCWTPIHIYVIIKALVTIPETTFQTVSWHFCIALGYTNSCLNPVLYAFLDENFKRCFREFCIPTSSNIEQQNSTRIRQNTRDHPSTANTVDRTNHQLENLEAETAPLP
CYP1A2, sequence (P05177 whole entry): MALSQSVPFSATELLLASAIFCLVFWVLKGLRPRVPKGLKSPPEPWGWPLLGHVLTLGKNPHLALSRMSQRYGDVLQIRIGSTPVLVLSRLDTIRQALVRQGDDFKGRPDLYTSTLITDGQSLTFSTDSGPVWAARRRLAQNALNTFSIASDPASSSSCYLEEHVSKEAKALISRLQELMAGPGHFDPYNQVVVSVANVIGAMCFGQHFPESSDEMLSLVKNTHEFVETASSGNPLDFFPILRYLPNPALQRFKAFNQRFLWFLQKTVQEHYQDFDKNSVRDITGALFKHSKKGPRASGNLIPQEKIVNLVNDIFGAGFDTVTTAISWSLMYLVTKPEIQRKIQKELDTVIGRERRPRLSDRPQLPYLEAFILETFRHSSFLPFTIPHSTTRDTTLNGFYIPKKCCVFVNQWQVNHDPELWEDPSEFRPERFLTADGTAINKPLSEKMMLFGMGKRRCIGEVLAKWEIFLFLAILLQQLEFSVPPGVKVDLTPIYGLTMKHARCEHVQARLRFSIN

COc1cccc(NCC(F)Cn2c3ccc(Br)cc3c3cc(Br)ccc32)n1 (racemic) [P7C3-S243, N-(3-(3,6-dibromo-9H-carbazol-9-yl)-2-fluoropropyl)-6-methoxypyridin-2-amine]
protection (MTT) [1]: significant protection | % F (brain) ([2]; IP 10 mg/kg): 28% | % F (plasma) ([2]; IP 10 mg/kg): 66% | AUC(brain) ([2]; IP 10 mg/kg): 189 ± 35 µg·min/g | T1/2 ([2]; IP 10 mg/kg): >24 h | % F (brain) ([2]; IP 20 mg/kg): 48% | AUC(brain) ([2]; IP 20 mg/kg): 319 ± 68 µg·min/g | T1/2 ([2]; IP 20 mg/kg): 15 h | AUC(brain) ([2]; IV 10 mg/kg): 671 ± 14 µg·min/g | T1/2 ([2]; IV 10 mg/kg): 7.4 h | AUC(brain) ([2]; PO 20 mg/kg): 388 ± 29 µg·min/g | T1/2 ([2]; PO 20 mg/kg): 9.6 h | metabolic stability in vivo ([2]; all routes of administration): metabolically stable | brain levels ([2]; following IP dosing): dose-proportional increase | protection down to (dose) (newborn neurons): 1 mg/kg/day | T1/2 [3]: > 4 h | Kp (in vivo; ip, 10 mg/kg): 0.45 | Kp (in vivo; ip, 20 mg/kg): 0.28 | Kp (in vivo; iv, 10 mg/kg): 1.1 | Kp (in vivo; po, 20 mg/kg): 0.81 | bioavailability (in vivo; brain, po, 20 mg/kg): 58% | bioavailability (in vivo; plasma, ip, 20 mg/kg): 90% | bioavailability (in vivo; plasma, po, 20 mg/kg): 38%

COc1cccc(NCC(F)Cn2c3ccc(Br)cc3c3cc(Br)ccc32)n1 (single isomer, unassigned; (-)) [(−)-P7C3-S243, (−)-N-(3-(3,6-dibromo-9H-carbazol-9-yl)-2-fluoropropyl)-6-methoxypyridin-2-amine]
sensitivity of cytochrome P450 (2B6): insensitive | binding partners among 47 neuronal receptors and channels [4]: no compelling binding partners were identified | time spent in the escape area (blast-injured mice [5]; 3 mg/kg/day begun 10 months after injury, after 4 and 8 weeks): sustained improvement in cognitive function | cognition relative to vehicle group after withdrawal (blast-injured mice [5]; after 8 weeks of treatment, then withdrawn): sustained improvement in cognition | inhibition at 50 µM (hERG): < 15% | IC50 (μ-opioid receptor): 8.2 µM | increase in number of foot slips (blast-injured mice [6]): normalized | IC50 (HCC44): > 10 µM | sensitivity of cytochrome P450 (2C9): insensitive | IC50 (H2009): > 10 µM | sensitivity of cytochrome P450 [7]: insensitive | IC50 (H2122): > 10 µM | sensitivity of cytochrome P450 (3A4): insensitive | IC50 (CYP1A2): 20 µM

COc1cccc(NCC(F)Cn2c3ccc(Br)cc3c3cc(Br)ccc32)c1 (centres unmarked) [P7C3-A20, N-(3-(3,6-dibromo-9H-carbazol-9-yl)-2-fluoropropyl)-3-methoxyaniline]
protection of cerebral cortical neurons [8]: protect rat cerebral cortical neurons
